Test results reported in ChEMBL document CHEMBL4616649, “Genomics-Metabolomics Profiling Disclosed Marine Vibrio spartinae 3.6 as a Producer of a New Branched Side Chain Prodigiosin” (2020).

Legend:
Type in all cases: functional
Staphylococcus aureus [1] = assay: Antibacterial activity against Staphylococcus aureus ATCC 29213 assessed as reduction in microbial growth after 20 hrs by microdilution method; settings: ATCC 29213, 20 h
Staphylococcus aureus [2] = assay: Antibacterial activity against Staphylococcus aureus ATCC 23235 assessed as reduction in microbial growth after 20 hrs by microdilution method; settings: ATCC 23235, 20 h
Staphylococcus aureus [3] = assay: Antibacterial activity against Staphylococcus aureus 6538P assessed as reduction in microbial growth after 20 hrs by microdilution method
[4] = tested on: Staphylococcus epidermidis; assay: Antibacterial activity against Staphylococcus epidermidis ATCC 35984 assessed as reduction in microbial growth after 20 hrs by microdilution method; settings: ATCC 35984, 20 h
Listeria monocytogenes = assay: Antibacterial activity against Listeria monocytogenes MB677 assessed as reduction in microbial growth after 20 hrs by microdilution method; settings: MB677, 20 h
[5] = tested on: Stenotrophomonas maltophilia; assay: Antibacterial activity against Stenotrophomonas maltophilia ATCC 13637 assessed as reduction in microbial growth after 20 hrs by microdilution method; settings: ATCC 13637, 20 h
[6] = tested on: Stenotrophomonas maltophilia; assay: Antibacterial activity against Stenotrophomonas maltophilia ATCC 13636 assessed as reduction in microbial growth after 20 hrs by microdilution method; settings: ATCC 13636, 20 h
[7] = tested on: Stenotrophomonas maltophilia; assay: Antibacterial activity against Stenotrophomonas maltophilia ATCC 700475 assessed as reduction in microbial growth after 20 hrs by microdilution method; settings: ATCC 700475, 20 h

SMILES | MIC (Staphylococcus aureus [1]) | MIC50 (Staphylococcus aureus [1]) | MIC (Staphylococcus aureus [2]) | MIC50 (Staphylococcus aureus [2]) | MIC50 (Staphylococcus aureus [3]) | MIC [4] | MIC50 [4] | MIC (Listeria monocytogenes) | MIC50 (Listeria monocytogenes) | MIC [5] | MIC50 [5] | MIC [6] | MIC50 [6] | MIC [7] | MIC50 [7] | MIC (Staphylococcus aureus [3])
CCCCCC1=C/C(=C\c2[nH]c(-c3ccc[nH]3)cc2OC)N=C1C | 3.3 µg/mL | 0.05 µg/mL | 1.3 µg/mL | 0.06 µg/mL | 0.04 µg/mL | 2 µg/mL | 0.33 µg/mL | 1.7 µg/mL | 0.16 µg/mL | 1.7 µg/mL | 0.66 µg/mL | 1.7 µg/mL | 0.13 µg/mL | 2.7 µg/mL | 0.5 µg/mL | 1.7 µg/mL
CC1(C)S[C@@H]2[C@H](NC(=O)[C@H](N)c3ccccc3)C(=O)N2[C@H]1C(=O)O [AMPICILLIN] |  |  |  |  |  |  |  | 0.8 µg/mL |  |  |  |  |  |  |  | 
O=C(N[C@H](CO)[C@H](O)c1ccc([N+](=O)[O-])cc1)C(Cl)Cl [CHLORAMPHENICOL] |  |  |  |  |  |  |  |  |  | 3.3 µg/mL |  | 4 µg/mL |  | 4 µg/mL |  | 
CN[C@H](CC(C)C)C(=O)N[C@H]1C(=O)N[C@@H](CC(N)=O)C(=O)N[C@H]2C(=O)N[C@H]3C(=O)N[C@H](C(=O)N[C@H](C(=O)O)c4cc(O)cc(O)c4-c4cc3ccc4O)[C@H](O)c3ccc(c(Cl)c3)Oc3cc2cc(c3O[C@@H]2O[C@H](CO)[C@@H](O)[C@H](O)[C@H]2O[C@H]2C[C@](C)(N)[C@H](O)[C@H](C)O2)Oc2ccc(cc2Cl)[C@H]1O [VANCOMYCIN] |  |  |  |  |  |  |  |  |  |  |  |  |  |  |  | 1.7 µg/mL

Second part, led by results:

MIC (Staphylococcus aureus [1]) | MIC50 (Staphylococcus aureus [1]) | MIC (Staphylococcus aureus [2]) | MIC50 (Staphylococcus aureus [2]) | MIC50 (Staphylococcus aureus [3]) | MIC [4] | MIC50 [4] | MIC (Listeria monocytogenes) | MIC50 (Listeria monocytogenes) | MIC [5] | MIC50 [5] | MIC [6] | MIC50 [6] | MIC [7] | MIC50 [7] | SMILES | MIC (Staphylococcus aureus [3])
27 µg/mL | 0.5 µg/mL | 21 µg/mL | 0.5 µg/mL | 0.2 µg/mL | 27 µg/mL | 2.7 µg/mL | 21 µg/mL | 3.3 µg/mL | 27 µg/mL | 3.3 µg/mL | 27 µg/mL | 3.3 µg/mL | 27 µg/mL | 4 µg/mL | COc1cc(-c2ccc[nH]2)[nH]c1/C=C1/C=C(CCCCC(C)C)C(C)=N1 | 21 µg/mL
4 µg/mL | 0.06 µg/mL | 3.3 µg/mL | 0.08 µg/mL | 0.05 µg/mL | 3.3 µg/mL | 0.5 µg/mL | 4 µg/mL | 0.4 µg/mL | 3.3 µg/mL | 2 µg/mL | 3.3 µg/mL | 1 µg/mL | 5.3 µg/mL | 1.7 µg/mL | COc1cc(-c2ccc[nH]2)[nH]c1/C=C1\N=C(C)C2=C1C(C)CCC2 (stereo not drawn) | 3.3 µg/mL
